Results published in US11427553B2, “Dihydrooxadiazinones” (Bayer Aktiengesellschaft, priority 2017, dated 2022).

Key:
[1] = test system: SK-MEL-3 cells; experiment: Assay 1 cell proliferation measurement (CTG, 72 h), SK-MEL-3; assay type: cell-based, human; settings: Homo sapiens, SK-MEL3; Assay 1, 72 h, Cell Titer Glo; read-out: SK-MEL-3 IC50 [nM] (melanoma)
Method in brief: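 CellTiter-Glo luminescence was read at treatment start (0 h plate) and after 72 h compound exposure at 37 °C. Doses were 2.5-fold steps, ten concentrations, top 100 nM final, 0.3% DMSO. Growth inhibition was scaled between 0 h and vehicle values, and IC50 was obtained by 4-parameter fitting.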

[2] = test system: Hs 578T cells; experiment: Assay 1 cell proliferation measurement, Hs 578T; assay type: cell-based; settings: Homo sapiens, Breast, read-out: Anti-proliferation IC50 [nM] Hs 578T
[3] = test system: DK-MG cells; experiment: Assay 1 cell proliferation measurement, DK-MG; assay type: cell-based; settings: Homo sapiens; Glioblastoma; read-out: Anti-proliferation IC50 [nM] DK-MG
[4] = Assay 6 in vitro metabolic stability in cryopreserved human hepatocytes (CL, Fmax); assay type: in vitro ADME; settings: 1 μM test compound; for Clblood: hepatic in vivo blood clearance calculated (well-stirred) from half-life in cryopreserved human hepatocytes; for Fmax: maximal oral bioavailability calculated from half-life in cryopreserved human hepatocytes
Method in brief: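 Test compound at 1 μM incubated with cryopreserved human hepatocytes (1.0×10^6 viable cells/ml, WME with 5% FCS) under shaking, with samples taken from 2 to 90 min, methanol-quenched and analysed by LC-MS/MS. Half-life gave intrinsic clearance, scaled with liver blood flow and hepatocellularity to CL and Fmax.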

[5] = test system: NCIH196 cells; experiment: Assay 2 cell proliferation measurement, H196; assay type: cell-based; settings: Homo sapiens, NCI-H196, Lung small cell carcinoma, read-out: Anti-proliferation IC50 [nM] H196
Method: (§1) Cell Proliferation Measurement
(§2) The antiproliferative activity of the compounds of the general formula (I) was examined in vitro in human cancer cells. For this purpose, 500 cells, including HeLa cells, A2058 cells, DU145 cells, HMCB cells, IGR37 cells, NCIH1734 cells, OSRC2 cells, or 750 cells, including CAL51 cells, COL0741 cells, DBTRG05MG cells, DKMG cells, G292CLONEA141B1 cells, GB1 cells, HEL cells, HEL9217 cells, JHUEM1 cells, L3.3 cells, LI7 cells, TE4 cells, or 1000 cells, including 8505C cells, HUT78 cells, NCIH1563 cells, NCIH2122 cells, NCIH2172 cells, RVH421 cells, SKMEL3 cells, or 1500 cells, including C32 cells, HS578T cells, JHOM1 cells, NCIH196 cells, OVKATE cells, were plated in 384-well plates with appropriate growth medium and incubated at 37° C. overnight. After 24 h, the cells on the test plate were treated with the compounds of the general formula (I) as and incubated at 37° C. for 72 h. The compounds were added to the cells by means of an HP D300 digital dispenser in a 10 (or more)-step dilution series. As control, the cells were treated with vehicle (DMSO at 0.3% final concentration). After 72 h, the cells were treated with 20 μl/well of 50% CTG solution in PBS (Promega Cell Titer Glo (catalogue #G755B and G756B)) and incubated at room temperature for 10 min, and luminescence was measured by means of a VICTOR V (Perkin Elmer), in order to determine cell viability at the end of treatment. The percentage effect on cell growth and the IC50 derived therefrom were determined for each test substance using the values from untreated wells (=percent viability). The IC50 values were calculated using a 4-parameter fit.

[6] = test system: L3.3 cells; experiment: Assay 2 cell proliferation measurement, L3.3; assay type: cell-based; settings: Homo sapiens, Pancreas NS, read-out: Anti-proliferation IC50 [nM] L3.3
Method: as §1, §2

Row | IC50 [1] [nM] | Clblood [4] [mL/min/kg] | Fmax [4] [%] | IC50 [5] [nM] | SMILES | IC50 [2] [nM] | IC50 [3] [nM] | IC50 [6] [nM]
1 | 7 | 6.5 | 70 | – | O=C1NN=C(c2ccc(-c3ccc(F)cc3)c(C(F)(F)F)c2)CO1 [Example 3, 5-[4′-Fluoro-2-(trifluoromethyl)biphenyl-4-yl]-3,6-dihydro-2H-1,3,4-oxadiazin-2-one] | 29 | 21 | –
2 | 11 | 10.7 | 52 | – | O=C1NN=C(c2ccc(-c3ccc(Cl)cc3)c(C(F)(F)F)c2)CO1 [Example 31, 5-[4′-Chloro-2-(trifluoromethyl)biphenyl-4-yl]-3,6-dihydro-2H-1,3,4-oxadiazin-2-one] | > 100 | 39 | –

Continued, molecule first:

Row | SMILES | IC50 [1] [nM] | Clblood [4] [mL/min/kg] | Fmax [4] [%] | IC50 [5] [nM] | IC50 [2] [nM] | IC50 [3] [nM] | IC50 [6] [nM]
3 | C[C@@H]1OC(=O)NN=C1c1ccc(-c2ccc(F)cc2)c(C(F)(F)F)c1 [Example 135, (6S)-5-[4′-Fluoro-2-(trifluoromethyl)biphenyl-4-yl]-6-methyl-3,6-dihydro-2H-1,3,4-oxadiazin-2-one] | 3 | 16.3 | 26 | 150 | – | – | 82
4 | O=C1NN=C(c2ccc(-c3cnn(C(F)F)c3)c(C(F)(F)F)c2)CO1 [Example 146, 5-{4-[1-(Difluoromethyl)-1H-pyrazol-4-yl]-3-(trifluoromethyl)phenyl}-3,6-dihydro-2H-1,3,4-oxadiazin-2-one] | 2 | 8.83 | 60 | 32 | 28 | 12 | 15
5 | C[C@@H]1OC(=O)NN=C1c1ccc(-n2ccc(C(F)(F)F)n2)c(C(F)(F)F)c1 [Example 265, (6S)-6-Methyl-5-{3-(trifluoromethyl)-4-[3-(trifluoromethyl)-1H-pyrazol-1-yl]phenyl}-3,6-dihydro-2H-1,3,4-oxadiazin-2-one] | 5 | 8.5 | 61 | 355 | – | – | 312
